Data set [1] in a line: Lactate dehydrogenase (LDH) release assay. The format is cell-based. Summed up: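 HCT116 cells stably carrying a p53-responsive β-lactamase reporter, seeded at 8000 cells/well, exposed to compound with 0.5% final DMSO. LDH release read with the CytoTox-ONE membrane integrity kit. Values are geometric means of at least three biological replicates.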
A short description of data set [2]: Solubility assay (kinetic solubility, PBS pH 7). It is filed as physicochemical. The settings on record: pH 7, PBS; for solubility kinetic: pH 7, aqueous buffer, kinetic from dmso stock, read-out: Solubility. Summed up:
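Values derive from peak-area ratios of sample versus a 100 µM standard, scaled by that standard's concentration.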

For a further data set, the system named is Ca Ski cell line. The settings on record: 72 h. On the procedure:
(§1) The medium for CellSensor™ p53RE-bla HCT-116 cells was McCoy’s 5 A Medium (GIBCO16600-002) supplied with 10% FBS (Hyclone, SH30406.05), 100 U/100ug/ml of Pen/Strep (SolarBio, P1400) and 5 μg/ml of blasticidin (GIBCO, A11139). The medium for Ca Ski cells was RPMI1640 (Hyclone, SH3080901B) supplied with 10% FBS and 100 U/100ug/ml of Pen/Strep. All cells were kept in humidified incubators with 5% CO2 at 37 °C. Culture media was changed after one day of subculturing and cells were passed again when there was 70–80% confluence. One day before the assay, the cells were trypsinized, collected, counted and viability was determined. […] The plates were kept in humidified incubators with 5% CO2 at 37 °C overnight. Compounds were prepared as a 10 point, 3x serial dilution in 100% DMSO, starting from a top concentration of 10 mM. […] At the end of the incubation the assay plate was equilibrated at room temperature for approximately 30 minutes prior to the addition of 25 uL of CellTiter-Glo® 2.0 Reagent. The assay plate was mixed for 2 minutes on an orbital shaker to induce cell lysis. Next, the plate was incubated at room temperature for 10 minutes to stabilize the luminescent signal prior to recording the luminescence on a plate reader.

Data set [3] deals with CellSensor p53RE-bla HCT-116 Cell Line. The settings on record: 72 h. Here is the method: as §1
The nature of another data set: in vitro. The settings on record: Nanoclick permeability assay EC50. The gist of the method:
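Azido-peptide permeability was read as loss of NanoBRET signal (donor 450 nm, acceptor 610 nm) after adding NanoBret618-azide at 10 μM final.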

The nature of data set [4]: Experimental LogD (partition coefficient). To be noted: for logD: not stated, Partition Coeff LogD.

≈ marks a conversion by molar mass, not a printed value. Positions of bridges follow the written chain, without caps; N, C: chain ends. Non-standard residues stand in square brackets, D forms with d. Residues, ends and D or L forms follow the SMILES beside them. Lys(N3) = [N-]=[N+]=NCCCC[C@H](N)C(=O)O; R8 = C=CCCCCCC[C@@](C)(N)C(=O)O; Cba = N[C@@H](CC1CCC1)C(=O)O; S5 = C=CCCC[C@](C)(N)C(=O)O; βAla = NCCC(=O)O

A word on the EC50: it is the concentration that produces a half-maximal response. A lower EC50 goes with greater potency. One may read the logD as lipophilicity at a set pH, counting ionised and neutral species. Read a high logD as higher lipophilicity.

For the compound `CC(=O)N[C@@H](CCCCN=[N+]=[N-])C(=O)NCCC(=O)N[C@@H](Cc1c[nH]cn1)C(=O)N[C@H](C(=O)N[C@@H](Cc1ccccc1)C(=O)N[C@]1(C)CCCCCCC=CCCC[C@@](C)(C(=O)N[C@@H](CO)C(=O)N[C@@H](C)C(=O)N[C@@H](C)C(N)=O)NC(=O)[C@H](CC2CCC2)NC(=O)[C@H](CCC(N)=O)NC(=O)[C@H](C)NC(=O)[C@H](Cc2c[nH]c3ccccc23)NC(=O)[C@H](Cc2ccc(O)cc2)NC(=O)[C@H](CCC(=O)O)NC1=O)[C@@H](C)O` [MP-173, AZIDE-ATSP-7041 (L1H)] (Ac-[Lys(N3)][βAla]HTF[R8]EYWAQ[Cba][S5]SAA-NH2; staple 6-13), the concentration giving a half-maximal response (EC50) in data set [1] (LDH: Cytotoxicity assay EC50) was over 50 µM; in the data set on Ca Ski cell line it was 35.3 µM; in data set [3] it was 5.14 µM. For the same compound, the solubility kinetic in data set [2] was 5 µM (≈ 9.97 µg/mL). Moreover, the cell entry EC50 in “in vitro” is 0.0406 µM. Moreover, the EPSA in “physchem” was found to be 232 A^2. In data set [4], this compound yielded a logD of 2.73.
Consider `CC(=O)N[C@@H](CCCCN=[N+]=[N-])C(=O)NCCC(=O)N[C@@H](CCC(=O)O)C(=O)N[C@H](C(=O)N[C@@H](Cc1ccccc1)C(=O)N[C@]1(C)CCCCCCC=CCCC[C@@](C)(C(=O)N[C@@H](CO)C(=O)N[C@@H](C)C(=O)N[C@@H](C)C(N)=O)NC(=O)[C@H](CC2CCC2)NC(=O)[C@H](CCC(N)=O)NC(=O)[C@H](C)NC(=O)[C@H](Cc2c[nH]c3ccccc23)NC(=O)[C@H](Cc2ccc(O)cc2)NC(=O)[C@H](CCC(=O)O)NC1=O)[C@@H](C)O` [MP-178], for which the half-maximal effective concentration (EC50) in data set [1] (LDH: Cytotoxicity assay EC50) is over 50 µM; with Ca Ski cell line, over 49.8 µM; in data set [3], 2.74 µM. The solubility kinetic in data set [2] was 169 µM (≈ 336 µg/mL). In addition, the cell entry EC50 in the data set “in vitro” is 0.292 µM. The EPSA in “physchem” stood at 254 A^2. The same compound gave a logD in data set [4] of 2.47.
Consider `CC(=O)N[C@@H](CCCCN=[N+]=[N-])C(=O)NCCC(=O)N[C@@H](CC(C)C)C(=O)N[C@H](C(=O)N[C@@H](Cc1ccccc1)C(=O)N[C@]1(C)CCCCCCC=CCCC[C@@](C)(C(=O)N[C@@H](CO)C(=O)N[C@@H](C)C(=O)N[C@@H](C)C(N)=O)NC(=O)[C@H](CC2CCC2)NC(=O)[C@H](CCC(N)=O)NC(=O)[C@H](Cc2c[nH]c3ccccc23)NC(=O)[C@H](Cc2c[nH]c3ccccc23)NC(=O)[C@H](Cc2ccc(O)cc2)NC(=O)[C@H](CCC(=O)O)NC1=O)[C@@H](C)O` [MP-186] (Ac-[Lys(N3)][βAla]LTF[R8]EYWWQ[Cba][S5]SAA-NH2; staple 6-13), for which the EC50 was over 50 µM in data set [1] (LDH: Cytotoxicity assay EC50), 21.5 µM with Ca Ski cell line and 5.8 µM in data set [3]. Moreover, the cell entry EC50 in the data set “in vitro” stood at 0.194 µM. The compound further showed an EPSA in the data set “physchem” of 238 A^2. In data set [4], this compound had a pH-dependent lipophilicity (logD) of 3.26.
`CC(=O)N[C@@H](CCCCN=[N+]=[N-])C(=O)NCCC(=O)N[C@@H](CC(C)C)C(=O)N[C@H](C(=O)N[C@@H](Cc1ccccc1)C(=O)N[C@]1(C)CCCCCCC=CCCC[C@@](C)(C(=O)N[C@@H](CO)C(=O)N[C@@H](C)C(=O)N[C@@H](C)C(N)=O)NC(=O)[C@H](CC2CCC2)NC(=O)[C@H](CCCNC(=N)N)NC(=O)[C@H](C)NC(=O)[C@H](Cc2c[nH]c3ccccc23)NC(=O)[C@H](Cc2ccc(O)cc2)NC(=O)[C@H](CCC(=O)O)NC1=O)[C@@H](C)O` [MP-556] (Ac-[Lys(N3)][βAla]LTF[R8]EYWAR[Cba][S5]SAA-NH2; staple 6-13): the half-maximal effective concentration (EC50) in data set [1] (LDH: Cytotoxicity assay EC50) is over 50 µM; in the data set with Ca Ski cell line, over 49.8 µM; in data set [3], 3.14 µM. Further, the cell entry EC50 in “in vitro” turned out to be 0.149 µM. Further, the EPSA in the data set “physchem” is 221 A^2. The log distribution coefficient (logD) in data set [4] turned out to be 3.15.
Take `CC(=O)N[C@@H](CCCCN=[N+]=[N-])C(=O)NCCC(=O)N[C@@H](CC(C)C)C(=O)N[C@H](C(=O)N[C@@H](Cc1ccccc1)C(=O)N[C@]1(C)CCCCCCC=CCCC[C@@](C)(C(=O)N[C@@H](C)C(=O)N[C@@H](C)C(=O)N[C@@H](C)C(=O)N[C@@H](C)C(=O)N[C@@H](C)C(=O)N[C@@H](CCC(=O)O)C(N)=O)NC(=O)[C@H](CC2CCC2)NC(=O)[C@H](CCC(N)=O)NC(=O)[C@H](C)NC(=O)[C@H](Cc2c[nH]c3ccccc23)NC(=O)[C@H](Cc2ccc(O)cc2)NC(=O)[C@H](CCC(=O)O)NC1=O)[C@@H](C)O` [MP-836] (Ac-[Lys(N3)][βAla]LTF[R8]EYWAQ[Cba][S5]AAAAAE-NH2; staple 6-13): the half-maximal effective concentration (EC50) is over 50.7 µM in data set [1] (LDH: Cytotoxicity assay EC50), over 49.8 µM with Ca Ski cell line and 1.05 µM in data set [3]. Moreover, the solubility kinetic in data set [2] was 164 µM (≈ 365 µg/mL). Also, the cell entry EC50 in “in vitro” is 1.77 µM. The log distribution coefficient (logD) in data set [4] worked out at 2.43.
For the compound `CC(=O)N[C@@H](CCCCN=[N+]=[N-])C(=O)NCCC(=O)N[C@@H](CC(C)C)C(=O)N[C@H](C(=O)N[C@@H](Cc1ccccc1)C(=O)N[C@]1(C)CCCCCCC=CCCC[C@@](C)(C(=O)N[C@@H](C)C(=O)N[C@@H](C)C(=O)N[C@@H](C)C(=O)N[C@@H](C)C(=O)N[C@@H](CCC(=O)O)C(=O)N[C@H](C)C(N)=O)NC(=O)[C@H](CC2CCC2)NC(=O)[C@H](CCC(N)=O)NC(=O)[C@H](C)NC(=O)[C@H](Cc2c[nH]c3ccccc23)NC(=O)[C@H](Cc2ccc(O)cc2)NC(=O)[C@H](CCC(=O)O)NC1=O)[C@@H](C)O` [MP-837] (Ac-[Lys(N3)][βAla]LTF[R8]EYWAQ[Cba][S5]AAAAE[dA]-NH2; staple 6-13), the 50% effective concentration (EC50) is over 50.7 µM in data set [1] (LDH: Cytotoxicity assay EC50), over 49.8 µM with Ca Ski cell line and 0.66 µM in data set [3]. Further, in data set [2], the solubility kinetic is 160 µM (≈ 356 µg/mL). Also, the cell entry EC50 in the data set “in vitro” amounted to 1.52 µM. The log distribution coefficient (logD) in data set [4] was determined as 2.53.
Regarding `CC(=O)N[C@@H](CCCCN=[N+]=[N-])C(=O)NCCC(=O)N[C@@H](CC(C)C)C(=O)N[C@H](C(=O)N[C@@H](Cc1ccccc1)C(=O)N[C@]1(C)CCCCCCC=CCCC[C@@](C)(C(=O)N[C@@H](CO)C(=O)N[C@@H](CCC(=O)O)C(=O)N[C@@H](C)C(N)=O)NC(=O)[C@H](CC2CCC2)NC(=O)[C@H](CCC(N)=O)NC(=O)[C@H](C)NC(=O)[C@H](Cc2c[nH]c3ccccc23)NC(=O)[C@H](Cc2ccc(O)cc2)NC(=O)[C@H](CCC(=O)O)NC1=O)[C@@H](C)O` [MP-898], the concentration for a half-maximal effect (EC50) in data set [1] (LDH: Cytotoxicity assay: EC50) was over 50.7 µM; in the data set on Ca Ski cell line it was over 49.8 µM; in data set [3], 7.5 µM. For the same compound, in data set [2], the solubility kinetic was found to be 145 µM (≈ 294 µg/mL). Besides, the cell entry EC50 in “in vitro” came out at 0.808 µM. Further, the pH-dependent lipophilicity (logD) in data set [4] was found to be 2.4.
For `CC(=O)N[C@@H](CCCCN=[N+]=[N-])C(=O)NCCC(=O)N[C@@H](CC(C)C)C(=O)N[C@H](C(=O)N[C@@H](Cc1ccccc1)C(=O)N[C@]1(C)CCCCCCC=CCCC[C@@](C)(C(=O)N[C@@H](C)C(=O)N[C@@H](CC(C)C)C(=O)N[C@@H](C)C(=O)N[C@@H](C)C(=O)N[C@@H](C)C(=O)N[C@H](C)C(N)=O)NC(=O)[C@H](CC2CCC2)NC(=O)[C@H](CCC(N)=O)NC(=O)[C@H](C)NC(=O)[C@H](Cc2c[nH]c3ccccc23)NC(=O)[C@H](Cc2ccc(O)cc2)NC(=O)[C@H](CCC(=O)O)NC1=O)[C@@H](C)O` [MP-968] (Ac-[Lys(N3)][βAla]LTF[R8]EYWAQ[Cba][S5]ALAAA[dA]-NH2; staple 6-13), the EC50 was over 50.7 µM in data set [1] (LDH: Cytotoxicity assay EC50), 43.1 µM with Ca Ski cell line and 1.41 µM in data set [3]. In addition, the Solubility entry in data set [2] is given as “Poorly Behaved”. Further, in “in vitro”, the cell entry EC50 is 4.2 µM. In addition, the “Partition Coeff LogD” value in data set [4] is recorded as “Poorly Behaved”.
